According to patent publication US11498896B2 (The Broad Institute, Inc., priority 2014, dated 2022):

Columns and labels:
human D2R/β-arrestin [1] = molecular target: T1, human D2R/β-arrestin (Homo sapiens (Human), UniProt P14416); assay: β-arrestin agonist assay (PathHunter); format: cell-based; conditions: CHO-K1 cells expressing human D2R/β-arrestin; agonist mode
Method: The detection reagent (9.6 μL, Buffer:Emerald II:Galactor-Star in a 19:5:1 ratio, i.e., 14.06 mL:3.7 mL:0.74 mL=18.5 mL) was then added to the agonist plates.

human D2R/β-arrestin [2] = molecular target: T1, human D2R/β-arrestin; assay: Gi/cAMP agonist assay (Lance Ultra cAMP, forskolin); format: cell-based; conditions: CHO-K1 cells expressing human D2R/β-arrestin; agonist mode, 2.5 μM forskolin
Method: Eu-cAMP tracer solution (10 μl, PerkinElmer, 360 μl of Tracer in 17.64 ml kit buffer) and ULight-anti-cAMP solution (10 μl, 120 μL antibody in 17.88 ml kit buffer) was then added to each well.

D2 receptor = D2 receptor (Homo sapiens (Human), UniProt P14416); assay: D2 radioligand binding assay
human D2R/β-arrestin [3] = molecular target: T1, human D2R/β-arrestin; assay: cell-based; conditions: β-arrestin Antagonist
human D2R/β-arrestin [4] = molecular target: T1, human D2R/β-arrestin; assay: cell-based; conditions: cAMP Antagonist
[5] = CHO-K1 cells expressing human D2R/β-arrestin, antagonist mode, quinpirole 130 nM
[6] = CHO-K1 cells expressing human D2R/β-arrestin, antagonist mode, 2.5 μM forskolin and 2.7 nM quinpirole

T1 sequence (P14416 whole entry): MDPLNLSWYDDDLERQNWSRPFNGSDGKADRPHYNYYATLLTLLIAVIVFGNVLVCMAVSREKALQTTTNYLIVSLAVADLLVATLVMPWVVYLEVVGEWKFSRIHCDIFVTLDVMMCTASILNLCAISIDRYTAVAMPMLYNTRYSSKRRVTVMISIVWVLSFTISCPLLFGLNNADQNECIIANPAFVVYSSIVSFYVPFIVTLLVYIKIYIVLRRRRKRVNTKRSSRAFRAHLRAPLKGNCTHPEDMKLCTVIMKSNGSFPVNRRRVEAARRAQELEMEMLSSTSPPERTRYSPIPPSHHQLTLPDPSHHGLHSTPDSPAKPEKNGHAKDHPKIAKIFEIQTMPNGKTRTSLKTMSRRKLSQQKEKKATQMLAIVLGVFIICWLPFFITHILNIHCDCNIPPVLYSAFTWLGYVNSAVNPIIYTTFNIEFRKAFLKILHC
Chain of D2 receptor (P14416 whole entry): as above

SMILES	EC50 (human D2R/β-arrestin [1]) [nM]	EC50 (human D2R/β-arrestin [2]) [nM]	Ki (D2 receptor) [nM]	IC50 (human D2R/β-arrestin [3]; [5]) [nM]	IC50 (human D2R/β-arrestin [4]; [6]) [nM]	IC50 (human D2R/β-arrestin [3]) [nM]	IC50 (human D2R/β-arrestin [4]) [nM]
CNC(=O)C1(C)CCN(CC2COc3ccccc3O2)CC1 (single isomer, unassigned) [Compound 202b, 1-((2,3-dihydrobenzo[b][1,4]dioxin-2-yl)methyl)-N,4-dimethylpiperidine-4-carboxamide]	> 30000	100 to 1000	1000 to 10000	100 to 1000	100 to 1000		
CC1(Oc2ccc(Cl)cc2)CCN(CCOc2ccccc2)C1 (stereo not shown) [Compound 1, 3-(4-chlorophenoxy)-3-methyl-1-(2-phenoxyethyl)pyrrolidine]	> 30000	< 100	1000 to 10000	1000 to 10000	> 30000		
CC1(Oc2ccc(Cl)cc2)CCN(CCn2ccccc2=O)C1 (stereo not shown) [Compound 7, 1-(2-(3-(4-chlorophenoxy)-3-methylpyrrolidin-1-yl)ethyl)pyridin-2(1H)-one]	> 30000	> 30000	10000 to 30000	> 30000	> 30000		
CC1(Oc2ccc(Cl)cc2)CCN(CCCCOc2ccccc2F)C1 (stereo not shown) [Compound 27, 3-(4-chlorophenoxy)-1-(4-(2-fluorophenoxy)butyl)-3-methylpyrrolidine]	> 30000	> 30000	100 to 1000	1000 to 10000	100 to 1000		
CC1(Oc2ccc(Cl)cc2)CCN(CCOc2cc(F)ccc2C(F)(F)F)CC1 [Compound 122, 4-(4-Chlorophenoxy)-1-(2-(5-fluoro-2-(trifluoromethyl)phenoxy)ethyl)-4-methylpiperidine]	> 30000	< 100	100 to 1000	100 to 1000	> 30000		
COC1(C)CCN(CCOc2ccccc2C(F)(F)F)CC1 [Compound 123, 4-methoxy-4-methyl-1-(2-(2-(trifluoromethyl)phenoxy)ethyl) piperidine]	> 30000	> 30000	< 100	100 to 1000	100 to 1000		
FC(F)(F)c1ccccc1OCCN1CCC2(CCCN2c2ccc(Cl)cc2)CC1 [Compound 135, 1-(4-Chlorophenyl)-8-(2-(2-(trifluoromethyl)phenoxy)ethyl)-1,8-diazaspiro[4.5]decane]	> 30000	> 30000	< 100	< 100	< 100		
Fc1ccccc1OCCN1CCC2(CC1)CCN2c1ccc(Cl)cc1 [Compound 137, 1-(4-chlorophenyl)-7-(2-(2-fluorophenoxy)ethyl)-1,7-diazaspiro[3.5]nonane]	> 30000	> 30000	< 100	< 100	< 100		
CC1(O)CCN(CC2COc3ccccc3O2)CC1 (stereo not shown) [Compound 140, 1-((2,3-dihydrobenzo[b][1,4]dioxin-2-yl)methyl)-4-methylpiperidin-4-ol]	1000 to 10000	< 100	10000 to 30000	100 to 1000	> 30000		
Clc1ccc2c(c1)CC1(CCN(CCOc3ccccc3)C1)O2 (stereo not shown) [Compound 144, 5-chloro-1′-(2-phenoxyethyl)-3H-spiro[benzofuran-2,3′-pyrrolidine]]	> 30000	> 30000	100 to 1000	1000 to 10000	100 to 1000		
CC1(Oc2ccccn2)CCN(CCOc2ccc(C(F)(F)F)cc2)CC1 [Compound 164, 2-((4-methyl-1-(2-(4-(trifluoromethyl)phenoxy)ethyl)piperidin-4-yl)oxy)pyridine]	> 30000	100 to 1000	10000 to 30000	10000 to 30000	> 30000		
CN(C)C(=O)C1(C)CCN(C[C@H]2COc3ccccc3O2)CC1 [Compound 205, (S)-1-((2,3-dihydrobenzo[b][1,4]dioxin-2-yl)methyl)-N,N,4-trimethylpiperidine-4-carboxamide]	100 to 1000	< 100	100 to 1000	100 to 1000	> 30000		
CC1(C(=O)N2CCCC2)CCN(C[C@H]2COc3ccccc3O2)CC1 [Compound 206, (S)-(1-((2,3-dihydrobenzo[b][1,4]dioxin-2-yl)methyl)-4-methylpiperidin-4-yl)(pyrrolidin-1-yl)methanone]	< 100	< 100	100 to 1000	< 100	> 30000		
CC(=O)NC1(C)CCN(C[C@H]2COc3ccccc3O2)CC1 [Compound 208, (S)—N-(1-((2,3-dihydrobenzo[b][1,4]dioxin-2-yl)methyl)-4-methylpiperidin-4-yl)acetamide]	100 to 1000	< 100	100 to 1000	< 100	> 30000		
CC1(NC(=O)C2CC2)CCN(C[C@H]2COc3ccccc3O2)CC1 [Compound 209, (S)—N-(1-((2,3-dihydrobenzo[b][1,4]dioxin-2-yl)methyl)-4-methylpiperidin-4-yl)cyclopropanecarboxamide]	> 30000	< 100	100 to 1000	< 100	> 30000		
CC(=O)NC1(C)CCN(C[C@H]2COc3ccc(F)cc3O2)CC1 [Compound 210, (S)—N-(1-((7-fluoro-2,3-dihydrobenzo[b][1,4]dioxin-2-yl)methyl)-4-methylpiperidin-4-yl)acetamide]	100 to 1000	< 100	100 to 1000	100 to 1000	> 30000		
CC(=O)NC1(C)CCN(C[C@H]2COc3ccc(Br)cc3O2)CC1 [Compound 211, (S)—N-(1-((7-bromo-2,3-dihydrobenzo[b][1,4]dioxin-2-yl)methyl)-4-methylpiperidin-4-yl)acetamide]	> 30000	> 30000	< 100	< 100	< 100		
CC1(Oc2ccc(C(F)(F)F)cc2)CCN(CCOc2ccccc2)C1 (stereo not shown) [Example 54, 3-methyl-1-(2-phenoxyethyl)-3-(4-(trifluoromethyl)phenoxy)pyrrolidine]	> 30000	100 to 1000	1000 to 10000	1000 to 10000	10000 to 30000		
CC1(Oc2cccc(C(F)(F)F)c2)CCN(CCOc2ccccc2)C1 (stereo not shown) [Example 55, 3-methyl-1-(2-phenoxyethyl)-3-(3-(trifluoromethyl)phenoxy)pyrrolidine]	> 30000	< 100	1000 to 10000	1000 to 10000	> 30000		
CC1(Oc2ccncc2)CCN(CCOc2ccccc2)C1 (stereo not shown) [Example 59, 4-((3-methyl-1-(2-phenoxyethyl)pyrrolidin-3-yl)oxy)pyridine]	10000 to 30000	< 100	1000 to 10000	> 30000	> 30000		
CC1(Oc2ccccc2)CCN(CCOc2ccc(C(F)(F)F)cc2)CC1 [Example 68]	> 30000	< 100	100 to 1000	> 30000	> 30000		
CC1(Oc2ccccc2)CC2CCC(C1)N2CCOc1ccccc1C(F)(F)F (stereo not shown) [Example 78, 3-Methyl-3-phenoxy-8-(2-(2-(trifluoromethyl)phenoxy)ethyl)-8-azabicyclo[3.2.1]octane]	> 30000	10000 to 30000	100 to 1000			100 to 1000	1000 to 10000
CC1(Oc2ccccc2)CCN(CCOc2ccccc2C#N)CC1 [Example 109, 2-(2-(4-methyl-4-phenoxypiperidin-1-yl)ethoxy)benzonitrile]	< 100	< 100		< 100	> 30000		
CN(C)c1ccccc1OCCN1CCC(C)(Oc2ccccc2)CC1 [Example 111, N,N-dimethyl-2-(2-(4-methyl-4-phenoxypiperidin-1-yl)ethoxy)aniline]	> 30000	> 30000		1000 to 10000	100 to 1000		
